# Experiment: antioxidant capacity (scavenging of free radical DPPH)
# Settings: main component of the extract
# From the text: The extract was obtained by sonication in ethanol 85% at a ratio of 1 g of tissue in 10 volumes of solvent.
structure (smiles),measurement,value
COc1cc(C(=O)O)cc(OC)c1O [syringic acid],EC50 (antioxidant capacity),170 µg/mL

# Reference: US20140287918A1, “USE OF PEUMUS BOLDUS EXTRACT OBTAINED BY MEANS OF IN VIVO CULTURE AND HAVING ANTI-BOTRYTIS, ALLELOPATHIC AND ANTIOXIDANT ACTIVITY” (UNIVERSIDAD DE SANTIAGO DE CHILE, priority 2011, published 2014)
